Measurements as given in ChEMBL document CHEMBL2218064, “Structure-activity relationship data for chemical series of antagonists of the P2X7 receptor (Supplementary Bioactivity Data for publication CHEMBL1157114)”.

These compounds were tested against T1, P2X purinoceptor 7 (Homo sapiens, UniProt Q99572) (assay: SUPPLEMENTARY: Inhibition of human P2X7 receptor assessed as inhibition of ethidium bromide accumulation. Same assay as CHEMBL1103860).
T1 sequence (Q99572 whole entry): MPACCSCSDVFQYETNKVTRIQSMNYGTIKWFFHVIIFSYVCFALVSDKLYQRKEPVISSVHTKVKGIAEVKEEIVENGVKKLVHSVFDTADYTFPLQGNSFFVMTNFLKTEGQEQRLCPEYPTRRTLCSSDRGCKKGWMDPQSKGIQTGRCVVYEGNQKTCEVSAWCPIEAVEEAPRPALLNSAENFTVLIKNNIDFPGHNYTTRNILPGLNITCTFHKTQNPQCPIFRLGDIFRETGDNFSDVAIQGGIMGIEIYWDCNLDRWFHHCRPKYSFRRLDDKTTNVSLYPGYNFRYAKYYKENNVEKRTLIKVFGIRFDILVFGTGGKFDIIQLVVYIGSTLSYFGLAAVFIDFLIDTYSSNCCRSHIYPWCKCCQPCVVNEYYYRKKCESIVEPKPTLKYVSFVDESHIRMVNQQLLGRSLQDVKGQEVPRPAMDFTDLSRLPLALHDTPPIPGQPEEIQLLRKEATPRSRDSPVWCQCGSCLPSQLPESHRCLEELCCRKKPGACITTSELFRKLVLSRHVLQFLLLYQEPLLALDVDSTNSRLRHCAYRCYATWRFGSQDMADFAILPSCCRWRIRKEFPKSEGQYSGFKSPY

SMILES | IC50 [nM]
CCN1C(=O)CC[C@@H]1C(=O)NCc1c(Cl)cccc1Cl | 631
CCN1C(=O)CC[C@@H]1C(=O)NCc1ccc(Cl)c(C(F)(F)F)c1 | 316
CCN1C(=O)CC[C@@H]1C(=O)NCc1c(C)cccc1Cl | 501
Cc1cc(Cl)ccc1CNC(=O)[C@@H]1CCC(=O)N1C | 25.1
CN1C(=O)CC[C@H]1C(=O)NCc1cccc(Cl)c1Cl | 15.8
CN1C(=O)CC[C@H]1C(=O)NCc1cccc(Cl)c1F | 126
CCN1C(=O)c2ccccc2C1C(=O)NCc1ccc(Cl)cc1Cl (stereo not drawn) | 398
CCN1C(=O)c2ccccc2C1C(=O)NCc1cccc(C(F)(F)F)c1Cl (stereo not drawn) | 79.4
CCN1C(=O)CCC1(C)C(=O)NCc1ccc(Cl)cc1Cl (stereo not drawn) | 100
CC1(C(=O)NCc2ccc(Cl)cc2Cl)CCC(=O)N1C1CC1 (stereo not drawn) | 10
O=C(NCc1ccc(Cl)cc1Cl)C1CCC(=O)N1C1CC1 (stereo not drawn) | 3.16
CC(C)N1C(=O)CCC1(C)C(=O)NCc1ccc(Cl)cc1Cl (stereo not drawn) | 200
CCN1C(=O)CC[C@@H]1C(=O)NCc1cccc(C(F)(F)F)c1F | 158
CCN1C(=O)CC[C@@H]1C(=O)NCc1cccc(Cl)c1F | 794
CCN1C(=O)CC[C@@H]1C(=O)NCc1ccc(F)c(F)c1Cl | 200
CCN1C(=O)CC[C@@H]1C(=O)NCc1ccc(Cl)cc1C | 126
CN1C(=O)CC[C@@H]1C(=O)NCc1ccc(F)cc1C(F)(F)F | 251
CN1C(=O)CC[C@@H]1C(=O)NCc1cccc(Cl)c1Cl | 63.1
O=C(NCc1ccc(F)cc1Cl)C1CCC(=O)N1C1CC1 (stereo not drawn) | 20
CN1C(=O)CC[C@@H]1C(=O)NCc1cccc(C(F)(F)F)c1Cl | 15.8
CC1=CC(=O)N(C2CC2)C1C(=O)NCc1ccc(Cl)cc1Cl (stereo not drawn) | 631
CN1C(=O)CC[C@H]1C(=O)NCc1ccc(F)cc1Br | 39.8
CN1C(=O)CC[C@H]1C(=O)NCc1cccc(F)c1C(F)(F)F | 200

SMILES | IC50 [nM]
CCN1C(=O)CC[C@H]1C(=O)NCc1ccc(F)c(Cl)c1Cl | 3.16
O=C(NCc1cccc(C(F)(F)F)c1Cl)C1CCC(=O)N1C1CC1 (stereo not drawn) | 1.26
CN1C(=O)CC[C@@H]1C(=O)NCc1cccc(C(F)(F)F)c1F | 200
Cc1cc(Cl)cc(Cl)c1CNC(=O)[C@@H]1CCC(=O)N1C | 1.26
CN1C(=O)CC[C@H]1C(=O)NCc1cccc2ccccc12 | 1.58
CN1C(=O)CC[C@H]1C(=O)NCc1ccc(F)c(F)c1Cl | 39.8
CCN1C(=O)C(C)(C)CC1C(=O)NCc1ccc(Cl)cc1Cl (stereo not drawn) | 25.1
O=C(NCc1cccc(C(F)(F)F)c1Cl)[C@H]1CCC(=O)N1Cc1ccccc1 | 31.6
O=C(NCc1cccc(C(F)(F)F)c1Cl)[C@H]1CCC(=O)N1C1CCCC1 | 100
CCC(C)N1C(=O)CC[C@@H]1C(=O)NCc1cccc(C(F)(F)F)c1Cl (stereo partly drawn) | 63.1
CN1CC(C(=O)NCc2cccc(C(F)(F)F)c2Cl)CC1=O (stereo not drawn) | 63.1
O=C(NCc1cccc(C(F)(F)F)c1Cl)C1COCC(=O)N1Cc1ccccc1 (stereo not drawn) | 251
O=C(NCc1ccc(Cl)cc1Cl)C1COCC(=O)N1Cc1ccccc1 (stereo not drawn) | 501
CCN1C(=O)CC[C@H]1C(=O)NCc1cccc(C)c1C | 100
CC(C)N1C(=O)CC[C@H]1C(=O)NCc1ccc(F)c(Cl)c1Cl | 5.01
Cc1c(Cl)cccc1CNC(=O)[C@@H]1CCC(=O)N1C(C)C | 15.8
Cc1nn(CCN(C)CCO)c(C)c1CC(=O)NCc1ccc(F)cc1Cl | 200
COCCNCCn1nc(C)c(CC(=O)NCc2ccc(F)cc2Cl)c1C | 126
Cc1nn(CCO)c(C)c1CC(=O)NCc1cccc(Cl)c1C | 63.1
Cc1nn(CCN2CCOCC2)c(C)c1CC(=O)NCc1cccc(Cl)c1C | 126
CCOc1cccc(-n2cc(CC(=O)NCc3ccc(F)cc3Cl)cn2)n1 | 1260
O=C(Cc1cnn(CCO)c1C(F)(F)F)NCc1ccc(F)cc1Cl | 200
O=C(Cc1cn(CCO)nc1C(F)(F)F)NCc1ccc(F)cc1Cl | 398

SMILES | IC50 [nM]
O=C(Cc1cn(CCNCCO)nc1C(F)(F)F)NCc1ccc(F)cc1Cl | 631
O=C(Cc1cn(CCNC2CCOCC2)nc1C(F)(F)F)NCc1ccc(F)cc1Cl | 794
O=C(Cc1cnn(CCN2CCCCC2)c1C(F)(F)F)NCc1ccc(F)cc1Cl | 794
COCCNCCn1ncc(CC(=O)NCc2ccc(F)cc2Cl)c1C(F)(F)F | 794
CCN1C(=O)CC[C@H]1C(=O)NCc1ccc(F)c(F)c1F | 158
CCN1C(=O)CC[C@H]1C(=O)NCc1c(F)cccc1Cl | 1000
CCN1C(=O)CC[C@H]1C(=O)NCc1ccc(Cl)cc1C | 25.1
CCN1C(=O)CC[C@H]1C(=O)NCc1c(C)cc(C)cc1C | 50.1
CCN1C(=O)CC[C@H]1C(=O)NCc1c(F)ccc(F)c1Cl | 794
CCN1C(=O)[C@H](Cc2ccccc2)C[C@H]1C(=O)NCc1ccc(F)cc1Cl | 100
CCN1C(=O)CC[C@H]1C(=O)NCc1ccc(Cl)c(Cl)c1 | 251
CCN1C(=O)CC[C@H]1C(=O)NCc1ccc(F)cc1C(F)(F)F | 39.8
CCN1C(=O)CC[C@H]1C(=O)NCc1ccc(C)cc1C | 158
CCN1C(=O)CC[C@H]1C(=O)NCc1c(C)cccc1Cl | 100
CCN1C(=O)CC[C@H]1C(=O)NCc1c(Cl)ccc(C)c1F | 794
CCN1C(=O)CC[C@H]1C(=O)NCc1cccc(Cl)c1C | 15.8
CCN1C(=O)CC[C@H]1C(=O)NCc1c(Cl)cccc1Cl | 100
CCN1C(=O)CC[C@H]1C(=O)NCc1ccc(F)c(C(F)(F)F)c1 | 79.4
CCN1C(=O)CC[C@H]1C(=O)NCc1ccc(Cl)c(C(F)(F)F)c1 | 79.4
CCN1C(=O)CC[C@H]1C(=O)NCc1ccc(Br)cc1F | 39.8
CCN1C(=O)CC[C@H]1C(=O)NCc1ccccc1C | 794
CCN1C(=O)CC[C@H]1C(=O)NCc1ccc(F)c(F)c1Cl | 7.94

Second part, the compound after the results:

IC50 [nM] | SMILES
200 | CN1C(=O)CCC1(C)C(=O)NCc1ccc(Cl)cc1Cl (stereo not drawn)
100 | CN1C(=O)CC[C@H]1C(=O)NCc1ccc(F)cc1C(F)(F)F
126 | CN1C(=O)CC[C@H]1C(=O)NCc1c(Cl)cccc1Cl
15.8 | Cc1c(Cl)cccc1CNC(=O)[C@@H]1CCC(=O)N1C
25.1 | CN1C(=O)CC[C@H]1C(=O)NCc1cccc(C(F)(F)F)c1F
126 | CN1C(=O)c2ccccc2C1C(=O)NCc1ccc(Cl)cc1Cl (stereo not drawn)
316 | CN1C(=O)c2ccccc2C1C(=O)NCc1ccc(F)cc1Cl (stereo not drawn)
15.8 | CN1C(=O)c2ccccc2C1C(=O)NCc1cccc(C(F)(F)F)c1Cl (stereo not drawn)
200 | CCN1C(=O)CC[C@@H]1C(=O)NCc1ccc(F)cc1C(F)(F)F
501 | O=C(NCc1ccc(F)cc1Cl)C1CC(=O)N(C2CC2)C1 (stereo not drawn)
100 | Cc1c(Cl)cccc1CNC(=O)[C@H]1CCC(=O)N1C
3.16 | Cc1c(CNC(=O)[C@@H]2CCC(=O)N2C)cccc1C(F)(F)F
25.1 | CC(C)(C)CN1C(=O)CC[C@H]1C(=O)NCc1cccc(C(F)(F)F)c1Cl
100 | CN1C(=O)CC(C)(C)C1C(=O)NCc1cccc(C(F)(F)F)c1Cl (stereo not drawn)
501 | O=C(NCc1ccc(F)cc1Cl)C1COCC(=O)N1Cc1ccccc1 (stereo not drawn)
12.6 | CN1C(=O)CC[C@H]1C(=O)NCc1ccc(F)c(Cl)c1Cl
158 | Cc1nn(CCN)c(C)c1CC(=O)NCc1ccc(F)cc1Cl
398 | COCCn1nc(C)c(CC(=O)NCc2ccc(F)cc2Cl)c1C
631 | Cc1nn(-c2ccccc2)c(C)c1CC(=O)NCc1cc(Cl)ccc1F
316 | Cc1nn(CC(C)(C)O)c(C)c1CC(=O)NCc1ccc(F)cc1Cl

IC50 [nM] | SMILES
794 | Cc1nn(CC(C)(C)O)c(C)c1CC(=O)NCc1ccc(F)c(F)c1F
158 | Cc1nn(CC(C)(C)O)c(C)c1CC(=O)NCc1cccc(Cl)c1C
200 | Cc1cccc(Cl)c1CNC(=O)Cc1c(C)nn(CC(C)(C)O)c1C
79.4 | Cc1nn(-c2ncccn2)c(C)c1CC(=O)NCc1ccc(F)c(F)c1F
398 | O=C(Cc1cnn(-c2ccc(F)cc2)c1Br)NCc1ccc(F)cc1Cl
251 | COc1ccc(-n2nc(C)c(CC(=O)NCc3ccc(F)cc3Cl)c2C)cn1
398 | COc1cncc(-n2nc(C)c(CC(=O)NCc3ccc(F)cc3Cl)c2C)c1
251 | COc1ncccc1-n1nc(C)c(CC(=O)NCc2ccc(F)cc2Cl)c1C
1260 | CN(C)CCn1ncc(CC(=O)NCc2ccc(F)cc2Cl)c1C(F)(F)F
1260 | O=C(Cc1cnn(CCNC2CCOCC2)c1C(F)(F)F)NCc1ccc(F)cc1Cl
251 | CCN1C(=O)CC[C@H]1C(=O)NCc1ccccc1Br
12.6 | CN1C(=O)CC[C@H]1C(=O)NCc1ccc(Cl)cc1Cl
158 | CCN1C(=O)CC[C@H]1C(=O)NCc1c(F)ccc(C)c1Cl
398 | CCN1C(=O)CC[C@H]1C(=O)NCc1cccc(F)c1F
200 | CCN1C(=O)CC[C@H]1C(=O)NCc1ccc(C(F)(F)F)cc1
316 | CCN1C(=O)OC[C@@H]1C(=O)NCc1ccc(F)cc1Cl
100 | CCN1C(=O)OC[C@H]1C(=O)NCc1ccc(F)cc1Cl
100 | CC1(C(=O)NCc2ccc(Cl)cc2Cl)CCC(=O)N1C1CCC1 (stereo not drawn)
25.1 | CCN1C(=O)CC[C@H]1C(=O)NCc1cccc(C(F)(F)F)c1F
79.4 | CCN1C(=O)CC[C@H]1C(=O)NCc1cccc(Cl)c1F
